Where two headings read alike, the source gives them in different places.
Key:
COX-2 = COX-2 expression in LPS-stimulated BV2 cells (Western blot); format: cell-based; conditions: 1, 2, 4 μM
Method: BV2 cells were seeded into a 6-well plate at a density of 3.0 × 10^5 cells per well. After incubation overnight, the old medium was discarded. Then, the cells were pretreated with various concentrations (1, 2, and 4 μM) of 4h for 1 h and then co-incubated with LPS (1 μg/mL) for 24 h. After incubation was completed, the cells were washed twice with PBS, and 300 μL of cell lysis buffer (RIRA lysis buffer, phosphatase inhibitor, protease inhibitor, and PMSF) was added to each well. The cells were then incubated on ice for 30 min and centrifuged at 12,000 rpm at 4 °C for 30 min to collect the supernatant. The protein content in the supernatant was detected using the BCA protein detection kit (Beyotime, Shanghai, China). Total proteins were separated by 10% SDS-PAGE and then transferred from the gel to a PVDF membrane (Sigma-Aldrich, Shanghai, China). The membranes were blocked in TBST solution containing 5% skimmed milk for 2 h. Next, the membranes were washed three times (TBST) and incubated with primary antibody dilution (Cell Signaling Technologies, Boston, MA, USA) overnight at 4 °C. Then, they were washed another three times (TBST), incubated with the secondary antibody at room temperature for 90 min, and then washed three times with TBST. The blots were visualized by a chemiluminescence imager (Tanon 5200, Shanghai, China).

TNF-α in BV2 cells = experiment: TNF-α secretion in LPS-stimulated BV2 cells (ELISA); format: cell-based; conditions: Mus musculus, BV-2, 24 h, read-out: TNF-α inhibition IC50
Method: (§1) The cytotoxicity of compounds on BV2 cells were evaluated by MTT assay and similar to those described in Section 2.5. The NO concentrations in medium were determined using Griess Reagent assay (Beyotime) in accordance with a previously reported method. Nitrite is reduced to nitrogen oxide using Griess Reagent I. Nitrogen oxide then reacts with Griess Reagent II forming a stable product that can be detected by its absorbance at […]. The two-step assay is simple, fast, and can detect nitrite levels as low as 1 nmol/well. BV2 cells were seeded into a 48-well plate at a density of 6.0 × 10^4 cells per well. After the cells were incubated overnight, the old medium was discarded. Then, the cells were pretreated with various concentrations (10, 5, 1, 0.5, and 0.1 μM) of compounds for 1 h and then co-incubated with LPS (1 μg/mL, 30 μL/well) for 24 h. After 24 h, the cell supernatant (50 μL/well) was placed into a new 96-well plate for experiment. […] The absorbance at […] was measured by a microplate reader.
The contents of TNF-α and IL-β in the cell supernatant were measured via ELISA (Jyimei, Wuhan, China) following the manufacturer’s instructions.

P-gp (MDR1) = experiment: in vitro; format: in vitro ADME; conditions: dog, MDCK-MDR1, MDCKII-MDR1
Method: (§2) Specifically, MDCKII-MDR1 cells (1 × 10^5 cell/cm^2) were seeded on polyester 12-well Transwell inserts (pore size: […], diameter: 12 mm, apical volume: 0.5 mL, basolateral: volume 1.5 mL) and cultured for 5–7 days to reach full differentiation as per TEER readings > 250 Ω·cm. […] After an incubation time of 2 h, samples were removed from the apical and basolateral side of the monolayer and were stored at −80 °C until further analysis.
(§3) The Papp was calculated according to the following equation (units of cm/s):(1) Papp=Va/area×time×Drugacceptor/Druginitial where “Va” is the volume in the acceptor well, “time” is the total transport time, “area” is the surface area of the membrane, “[Drug]initial” is the initial drug concentration in the AP or BL chamber, and “[Drug]acceptor” is the concentration of the drug in the acceptor chamber.
(§4) The ER was calculated using the following equation:ER = Papp, BL-AP/Papp, AP-BL(2) where “Papp, BL-AP” is the apparent permeability of basal-to-apical transport, and “Papp, AP-BL” is the apparent permeability of apical-to-basal transport.

MDCKII-MDR1 cells = experiment: in vitro; format: in vitro ADME; conditions: efflux ratio
Method: as §2, §3, §4

BuChE = molecular target: T1, BuChE (Equus caballus, UniProt P81908); experiment: Reversibility of BuChE inhibition, dilution method; format: biochemical; conditions: for BuChE activity after dilution (reversibility): control 100
T1 construct: BuChE (from equine serum); purchased Sigma Chemical Company (St. Louis, MO, USA); host or cells: equine serum
T1 sequence (P81908 whole entry): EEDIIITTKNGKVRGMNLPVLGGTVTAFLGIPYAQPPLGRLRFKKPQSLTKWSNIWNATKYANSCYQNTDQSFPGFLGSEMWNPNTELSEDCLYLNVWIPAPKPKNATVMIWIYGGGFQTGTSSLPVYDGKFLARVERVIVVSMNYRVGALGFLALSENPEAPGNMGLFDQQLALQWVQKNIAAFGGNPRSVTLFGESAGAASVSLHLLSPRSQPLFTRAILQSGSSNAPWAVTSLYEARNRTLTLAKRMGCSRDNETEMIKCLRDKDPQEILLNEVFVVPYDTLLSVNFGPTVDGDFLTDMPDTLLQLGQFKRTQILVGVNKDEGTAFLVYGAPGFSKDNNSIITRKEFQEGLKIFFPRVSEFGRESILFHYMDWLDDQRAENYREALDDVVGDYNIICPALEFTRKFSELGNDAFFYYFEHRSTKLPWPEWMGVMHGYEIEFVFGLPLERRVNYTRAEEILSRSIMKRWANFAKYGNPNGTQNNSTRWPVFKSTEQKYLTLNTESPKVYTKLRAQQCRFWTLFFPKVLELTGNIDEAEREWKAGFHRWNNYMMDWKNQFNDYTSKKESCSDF
Method: (§5) The activities of the diluted residual enzymes were measured by Ellman’s modified method.
(§6) Reversibility studies were performed using a modified Ellman’s dilution method to measure the activity of the diluted residual enzyme. The AChE/BuChE (0.5 U/mL), ATCI/BTCI (0.01 M) and DTNB (0.01 M) were diluted with phosphate buffer pH = 7.4. […] At the end of incubation, 20 μL of DTNB solution was added to them. […] All the measured results are expressed as the mean ± SEM of the three independent experiments.

in vitro = in vitro ADME, SD rats; conditions: pH 7.4
Method: The incubation was terminated at different time points by adding 0.5 mL of ice-cold CH3CN. A parallel incubation was performed in the absence of a NADPH-regenerating system with microsomes as the negative control, and the reactions were terminated after the corresponding time incubation. After centrifugation with 12,500 rpm at 4 °C for 10 min, the supernatant was directly analyzed by the HPLC UV systems (Agilent HPLC 1200 instrument). Three independent experiments were performed in triplicate.

AChE = molecular target: T2, AChE (Electrophorus electricus, UniProt O42275); format: biochemical; conditions: for AChE activity after dilution (reversibility): control 100
T2 construct: AChE (from electric eel); purchased Sigma Chemical Company (St. Louis, MO, USA)
T2 sequence (O42275 24-633): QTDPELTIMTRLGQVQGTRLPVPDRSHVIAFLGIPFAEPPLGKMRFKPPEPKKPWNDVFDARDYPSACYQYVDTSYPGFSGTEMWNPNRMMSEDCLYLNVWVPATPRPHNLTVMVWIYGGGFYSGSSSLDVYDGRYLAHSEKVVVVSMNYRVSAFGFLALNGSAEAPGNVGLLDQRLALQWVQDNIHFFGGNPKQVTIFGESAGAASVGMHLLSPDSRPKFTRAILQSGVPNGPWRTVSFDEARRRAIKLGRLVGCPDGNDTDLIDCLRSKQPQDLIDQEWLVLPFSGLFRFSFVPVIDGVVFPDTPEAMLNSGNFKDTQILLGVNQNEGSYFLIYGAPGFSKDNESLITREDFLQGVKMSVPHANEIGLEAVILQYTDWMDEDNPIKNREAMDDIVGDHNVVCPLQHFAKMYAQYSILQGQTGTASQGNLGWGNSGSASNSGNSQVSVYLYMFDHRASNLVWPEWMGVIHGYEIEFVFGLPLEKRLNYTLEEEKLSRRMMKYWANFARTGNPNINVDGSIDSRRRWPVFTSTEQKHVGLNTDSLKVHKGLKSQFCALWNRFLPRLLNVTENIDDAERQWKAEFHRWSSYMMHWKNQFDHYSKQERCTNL
Method: as §5, §6

AChE (from electric eel) = molecular target: T3, AChE (from electric eel) (Electrophorus electricus, UniProt O42275); experiment: biochemical
T3 construct: AChE (from electric eel); purchased Sigma Chemical Company (St. Louis, MO, USA)
T3 sequence (O42275 24-633): as above

[1] = molecular target: T4, BuChE (from equine serum) (Equus caballus, UniProt P81908); experiment: biochemical; conditions: mean ± SD of three experiments, read-out: BuChE Inhibition (IC50)
T4 construct: BuChE (from equine serum); purchased Sigma Chemical Company (St. Louis, MO, USA); host or cells: equine serum
T4 sequence (P81908 whole entry): as the sequence (P81908 whole entry) above

NO in BV2 cells = experiment: NO production in LPS-stimulated BV2 cells (Griess); format: cell-based; conditions: Mus musculus, BV-2, 24 h, read-out: NO inhibition IC50
Method: as §1

[2] = final inhibitor 0.1 × IC50 after 100-fold dilution
[3] = final inhibitor 1 × IC50 after 100-fold dilution

Structure (SMILES): O=C1c2cc(NS(=O)(=O)c3ccccc3F)ccc2-n2c1nc1ccccc1c2=O [4h]
- COX-2 expression (COX-2): significantly decreased the expression of COX-2 and iNOS
- IC50 (TNF-α in BV2 cells): 1310 ± 280 nM
- Papp A→B at 2 h, 75 μM (P-gp (MDR1); apical-to-basal, 2 h): 18.1 ± 2.7 ×10⁻⁶ cm/s
- Papp B→A at 2 h, 75 μM (P-gp (MDR1); basal-to-apical, 2 h): 17.4 ± 2.2 ×10⁻⁶ cm/s
- efflux ratio at 2 h, 75 μM (P-gp (MDR1); efflux ratio, read-out: ER Papp BL/Papp AP): 0.96
- ER Papp BL/Papp AP (MDCKII-MDR1 cells): less than two
- Reversibility of BuChE inhibition (BuChE; dilution method): reversible inhibitor
- BuChE activity after dilution (reversibility) (BuChE; [2]): 92.2 ± 0.52
- BuChE activity after dilution (reversibility) (BuChE; [3]): 84.9 ± 1.2
- K (in vitro; SD, rat, 100 μM): 0.00574 ± 0.00037 min⁻¹
- half-life at 100 μM (in vitro; SD rat liver microsomes): 1.8 ± 0.0817 h
- Reversibility of AChE inhibition (AChE; dilution method): reversible inhibitor
- AChE activity after dilution (reversibility) (AChE; [2]): 87.2 ± 0.92
- AChE activity after dilution (reversibility) (AChE; [3]): 72.3 ± 1.03
- IC50 (AChE (from electric eel); AChE from electric eel, mean ± SD of three experiments, read-out: AChE Inhibition (IC50)): 130 ± 40 nM
- Selective Index, IC50 (BChE)/IC50 (AChE) (AChE (from electric eel); AChE selectivity index): 47
- IC50 [1]: 6110 ± 150 nM
- IC50 (NO in BV2 cells): 620 ± 70 nM

Source: paper PMC10610214 (Pharmaceuticals, 2023)
